The values that follow come from ChEMBL document CHEMBL1201862, “PubChem BioAssay data set” (2004).

Structures are written as SMILES.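 Values below derive from 48-hour exposures of cells grown in 96-well plates, with endpoints linearly interpolated between the two concentrations bracketing the appropriate inhibition level. Abbreviation: GI50, concentration required for 50% inhibition of growth.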 Calls of active or inactive are those of the source. Rule as the data show it: active = GI50 up to about 1.1 µM and inactive = higher.

Among the test systems are CAKI-1; COLO 205; EKVX; HCT-116; HCT-15; MDA-MB-435; MOLT-4; NCI-H226; NCI-H460; OVCAR-5; PC-3; SF-268; SK-OV-3; SN12C; SNB-75; SR; UACC-257; UO-31; HL-60; HOP-92.
Holding throughout (assay): DTP human tumour cell line panel, 48 h

Usually GI50 stands for the concentration at which growth is held to half of that of the control. With `CN(C)CCNC1=Nc2ccccc2C(=S)N2CSCC12` (stereo not given), the GI50 with CAKI-1 was > 100 µM (inactive); with COLO 205, > 100 µM (inactive); in the assay with EKVX it was > 100 µM (inactive); with HCT-116, > 100 µM (inactive); with HCT-15, over 100 µM; with MDA-MB-435, > 100 µM (inactive). Further, the GI50 in the assay on MOLT-4, in the assay on NCI-H226, in the assay with NCI-H460, with OVCAR-5, in the assay on PC-3 and with SF-268 was > 100 µM (inactive) each time. The GI50 in the assay with SK-OV-3 is > 100 µM (inactive); in the assay with SN12C it was > 100 µM (inactive); in the assay on SNB-75, > 100 µM (inactive); with SR, > 100 µM (inactive); in the assay with UACC-257, > 100 µM (inactive); with UO-31, 58.2 µM (inactive).
Regarding `Clc1ccc(-c2nc(-c3ccc(Cl)cc3)[s+]s2)cc1`, the GI50 was > 100 µM (inactive) in the assay on CAKI-1; > 100 µM (inactive) in the assay with COLO 205; 56.2 µM (inactive) in the assay with EKVX; 51.4 µM (inactive) in the assay on HCT-116; 33.3 µM in the assay on HCT-15; 74.1 µM (inactive) in the assay on MDA-MB-435. Also, the GI50 is 26.6 µM (inactive) in the assay on MOLT-4; 37.6 µM (inactive) in the assay on NCI-H460; > 100 µM (inactive) with OVCAR-5; > 100 µM (inactive) with PC-3; 37.2 µM (inactive) in the assay on SF-268; 41.1 µM (inactive) in the assay with SK-OV-3. In addition, the GI50 with SN12C was 96.4 µM (inactive); in the assay on SR, 28.4 µM (inactive); in the assay on UACC-257 it was 55.2 µM (inactive); with UO-31 it was > 100 µM (inactive).
For the compound `CCN(CC)CCCNc1nc(=O)[nH]c(C)c1C(=O)Nc1cccc2cc3ccccc3cc12`, the GI50 with CAKI-1 is > 100 µM (inactive); in the assay with COLO 205 it was > 100 µM (inactive); with EKVX, > 100 µM (inactive); with HCT-116, > 100 µM (inactive); with HCT-15, over 100 µM; in the assay with HL-60 it was > 100 µM (inactive). Further, the GI50 in the assay on HOP-92 is 62.2 µM (inactive); with MDA-MB-435, > 100 µM (inactive); in the assay on MOLT-4, > 100 µM (inactive); in the assay with NCI-H226, > 100 µM (inactive); in the assay with OVCAR-5, > 100 µM (inactive); with PC-3 it was > 100 µM (inactive). For the same compound, the GI50 in the assay with SK-OV-3, in the assay with SN12C, with SNB-75, in the assay on UACC-257 and in the assay on UO-31 was > 100 µM (inactive) throughout.
For `Cc1ccc(F)cc1NC(=O)O/N=C(\Cl)C(C)C`, the GI50 was 1.72 µM (inactive) with CAKI-1; 1.9 µM (inactive) in the assay on COLO 205; 7.19 µM (inactive) in the assay with EKVX; 5.28 µM (inactive) with HCT-116; 1.82 µM with HCT-15; 2.32 µM (inactive) in the assay with HL-60. Moreover, the GI50 is 2.58 µM (inactive) in the assay with HOP-92; 13 µM (inactive) in the assay on MDA-MB-435; 1.6 µM (inactive) in the assay on MOLT-4; 14 µM (inactive) in the assay on NCI-H226; 29.2 µM (inactive) in the assay with NCI-H460; 15.4 µM (inactive) in the assay on OVCAR-5. Further, the GI50 is 18 µM (inactive) in the assay with PC-3; 24.5 µM (inactive) in the assay with SF-268; 20.2 µM (inactive) with SK-OV-3; 6.11 µM (inactive) in the assay with SN12C; 14.8 µM (inactive) with SNB-75; 19 µM (inactive) in the assay with UACC-257. Besides, the GI50 with UO-31 was 7.98 µM (inactive).
`O=C(NNc1ccc([N+](=O)[O-])cc1[N+](=O)[O-])/C(O)=C\C(=O)c1ccccc1`: the GI50 in the assay with CAKI-1 is 21.1 µM (inactive); in the assay on COLO 205, 18.4 µM (inactive); in the assay on EKVX, 25.2 µM (inactive); in the assay on HCT-116, 14.4 µM (inactive); with HCT-15, 16.5 µM; with MDA-MB-435 it was 30.5 µM (inactive). Also, the GI50 with MOLT-4 was 17.7 µM (inactive); in the assay with NCI-H226, 21.2 µM (inactive); in the assay with NCI-H460, 19 µM (inactive); with OVCAR-5, 19.7 µM (inactive); in the assay with PC-3, 20.3 µM (inactive); in the assay on SF-268 it was 17.7 µM (inactive). The GI50 in the assay with SK-OV-3 is 18.6 µM (inactive); in the assay with SN12C it was 16.5 µM (inactive); in the assay with SNB-75, 12.8 µM (inactive); with SR it was 19.9 µM (inactive); in the assay with UACC-257 it was 29 µM (inactive); in the assay on UO-31, 14.3 µM (inactive).
As for `O=C1c2ccccc2C(=O)N1CCSCC(CO)SCCN1C(=O)c2ccccc2C1=O` (stereo not given), the GI50 in the assay on CAKI-1 is > 100 µM (inactive); with COLO 205 it was > 100 µM (inactive); in the assay on EKVX it was 91 µM (inactive); in the assay on HCT-116, > 100 µM (inactive); in the assay on HCT-15, over 100 µM; in the assay with HL-60 it was 9.98 µM (inactive). The GI50 was > 100 µM (inactive) in the assay on HOP-92; > 100 µM (inactive) in the assay on MDA-MB-435; 74 µM (inactive) in the assay with MOLT-4; > 100 µM (inactive) in the assay with NCI-H226; > 100 µM (inactive) in the assay with NCI-H460; > 100 µM (inactive) in the assay on OVCAR-5. The GI50 with PC-3, in the assay with SF-268, with SK-OV-3, in the assay with SN12C, in the assay on SR and in the assay with UACC-257 was > 100 µM (inactive) each time. Besides, the GI50 in the assay on UO-31 was > 100 µM (inactive).
With `COc1cc2c(cc1OCCCCCCCCN1C(=O)c3cccc4cccc(c34)C1=O)N=C[C@@H]1CCCN1C2=O`, the GI50 is 13.3 µM (inactive) in the assay with CAKI-1; 4.71 µM (inactive) in the assay with COLO 205; 2.37 µM (inactive) in the assay with EKVX; 19.1 µM (inactive) with HCT-116; 12.8 µM in the assay on HCT-15; 13.8 µM (inactive) in the assay on HL-60. The GI50 in the assay on MDA-MB-435 is 14.3 µM (inactive); in the assay with MOLT-4 it was 3.48 µM (inactive); with NCI-H226, 14.7 µM (inactive); in the assay on NCI-H460 it was 20.7 µM (inactive); with OVCAR-5, 20.4 µM (inactive); with PC-3, 7.45 µM (inactive). Besides, the GI50 was 15 µM (inactive) with SF-268; 1.79 µM (inactive) in the assay with SK-OV-3; 22.2 µM (inactive) with SN12C; 1.11 µM (active) in the assay with SNB-75; 4.07 µM (inactive) with SR; 26.2 µM (inactive) in the assay on UACC-257. Moreover, the GI50 in the assay on UO-31 was 17.2 µM (inactive).
In the case of `COc1ccc2[nH]cc(CCNC(=O)[C@H](Cc3ccccc3)NC(=O)[C@@H](NCC(F)(F)F)C(C)C)c2c1`, the GI50 was 17.9 µM (inactive) in the assay with COLO 205; 17.4 µM (inactive) in the assay with EKVX; 16.5 µM (inactive) in the assay with HCT-116; 21.4 µM in the assay with HCT-15; 20.1 µM (inactive) in the assay on HL-60; 12.1 µM (inactive) in the assay with HOP-92. In addition, the GI50 in the assay with MDA-MB-435 is 19.8 µM (inactive); in the assay on MOLT-4 it was 20.4 µM (inactive); in the assay with NCI-H226, 21.4 µM (inactive); with NCI-H460 it was 20.1 µM (inactive); in the assay on OVCAR-5 it was 18.3 µM (inactive); with PC-3, 18.2 µM (inactive). Also, the GI50 in the assay on SK-OV-3 was 18.2 µM (inactive); in the assay on SN12C, 24.5 µM (inactive); with SR, 36.2 µM (inactive); in the assay on UACC-257, 19.7 µM (inactive); in the assay with UO-31, 22.9 µM (inactive).
As to `CC(C)(C)NC(=O)CCC1C(C(=O)NC(C)(C)C)C2(Cl)C(Cl)=C(Cl)C1(Cl)C2(Cl)Cl` (stereo not given), the GI50 in the assay on COLO 205 is > 100 µM (inactive); with EKVX, > 100 µM (inactive); in the assay on HCT-116, > 100 µM (inactive); with HCT-15 it was over 100 µM; in the assay on HL-60, > 100 µM (inactive); in the assay with MDA-MB-435, > 100 µM (inactive). Besides, the GI50 in the assay with MOLT-4, in the assay on NCI-H226, in the assay with NCI-H460, in the assay with OVCAR-5, in the assay on PC-3 and in the assay on SF-268 was > 100 µM (inactive) in each case. Also, the GI50 with SK-OV-3, with SN12C, in the assay on SNB-75, with SR, in the assay on UACC-257 and in the assay on UO-31 was > 100 µM (inactive) throughout.
Regarding `C[N+](C)(CCNC(=O)c1cccc2cc3ccccc3nc12)Cc1ccc([N+](=O)[O-])s1`, the GI50 in the assay on CAKI-1 is 14.9 µM (inactive); in the assay on COLO 205 it was > 25 µM (inactive); in the assay on EKVX it was > 25 µM (inactive); in the assay on HCT-116 it was > 25 µM (inactive); in the assay on HCT-15 it was over 25 µM; with HL-60 it was 10.9 µM (inactive). For the same compound, the GI50 in the assay with HOP-92, in the assay on MDA-MB-435, in the assay on MOLT-4, in the assay with NCI-H226, with OVCAR-5 and with PC-3 was > 25 µM (inactive) throughout. The GI50 in the assay on SF-268, in the assay on SK-OV-3, with SN12C, in the assay on SNB-75, with UACC-257 and with UO-31 was > 25 µM (inactive) each time.
On to `COC(=O)c1c2c(cc3c1CC1(Cc4cc5c(c(C)c4C1)CCC5)C3)CCC2` (stereo not given), for which the GI50 with CAKI-1 is > 100 µM (inactive); with EKVX it was > 100 µM (inactive); with HCT-116 it was > 100 µM (inactive); in the assay with HCT-15, over 100 µM; in the assay with HL-60, > 100 µM (inactive); in the assay with HOP-92, > 100 µM (inactive). Further, the GI50 in the assay with MDA-MB-435, with MOLT-4, with NCI-H460, in the assay on OVCAR-5, with PC-3 and in the assay with SF-268 was > 100 µM (inactive) each time. Also, the GI50 with SK-OV-3, in the assay on SR, in the assay with UACC-257 and with UO-31 was > 100 µM (inactive) throughout.
